Results: paper PMC8160793, “Potent Antimicrobial and Antibiofilm Activities of Feleucin-K3 Analogs Modified by α-(4-Pentenyl)-Ala against Multidrug-Resistant Bacteria” (Biomolecules, 2021)
Converted amounts (≈) assume the structure as drawn. Square brackets hold non-standard residues; d marks the D form. Peptide text beside a SMILES is read from it. ξ: configuration not given here. ξαMeGly(pent-4-enyl) = C=CCCCC(C)(N)C(=O)O

What was measured:
E. coli ATCC 25922 [1] = format: cell-based; details: ATCC 25922, 18 h
Method: (§1) The minimum inhibitory concentration (MIC) of the Feleucin-K3 analogs was tested by the broth microdilution method. Sensitive bacteria and drug-resistant bacteria were diluted to 1 × 10^6 CFU/mL, according to the McFarland standards. Bacterial suspension and peptide solutions (8–128 μg/mL) were incubated at 37 °C for 18 h. The minimum concentration without obvious bacterial growth was the MIC of the peptides. The stability of the analogs in a physiological salt environment was also investigated. In brief, salt powder (450-mM NaCl) was dissolved in deionized water, and the following investigational steps were the same as those described before. The above steps were repeated several times, until the same value was obtained three times.

P. aeruginosa ATCC 27853 = format: cell-based, Pseudomonas aeruginosa; details: ATCC 27853, 18 h
Method: as §1

A. baumannii 51243 = format: cell-based, Acinetobacter baumannii; details: 51243, 18 h
How it was run: (§2)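 Broth microdilution MIC: bacteria diluted to 1 × 10^6 CFU/mL per McFarland standards, incubated with peptide (8–128 μg/mL) at 37 °C for 18 h. MIC taken as the lowest concentration without obvious growth. Salt stability tested the same way with 450-mM NaCl; repeated until the same value was obtained three times.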

A. baumannii 5444 = format: cell-based, Acinetobacter baumannii; details: 5444, 18 h
How it was run: as §2

A. baumannii 822144 = format: cell-based, Acinetobacter baumannii; details: 822144, 18 h
How it was run: as §2

A. baumannii 8309 = format: cell-based, Acinetobacter baumannii; details: 8309, 18 h
How it was run: as §2

A. baumannii 9236 = format: cell-based, Acinetobacter baumannii; details: 9236, 18 h
How it was run: as §2

A. baumannii 9331 = format: cell-based, Acinetobacter baumannii; details: 9331, 18 h
How it was run: as §2

A. baumannii 98110 = format: cell-based, Acinetobacter baumannii; details: 98110, 18 h
How it was run: as §2

A. baumannii ATCC 19606 = format: cell-based, Acinetobacter baumannii; details: ATCC 19606, 18 h
How it was run: as §2

E. coli ATCC 25922 [2] = format: cell-based; details: ATCC 25922, 24 h
Method: The antibiofilm activity of the peptides was determined according to the previously described methods. Strains (final concentration of 5 × 10^5 CFU/mL) and peptides (4–128 μg/mL) were incubated for 24 h at 37 °C. Biofilm cells were cleaned with 0.01-M PBS and fixed with methanol. Crystal violet (0.1%, HopeBiol, Qingdao, China) was used to stain the biofilm cells for 10 min. After washing with water, 95% ethanol was finally added, and the optical density at 595 nm was measured with a microplate reader (Flex Station 3; Laguna Hills, CA, USA).

Compound	MIC, E. coli ATCC 25922 (E. coli ATCC 25922 [1]) [µg/mL]	MIC, P. aeruginosa ATCC 27853 (P. aeruginosa ATCC 27853) [µg/mL]	MIC, A. baumannii 51243 (A. baumannii 51243) [µg/mL]	MIC, A. baumannii 5444 (A. baumannii 5444) [µg/mL]	MIC, A. baumannii 822144 (A. baumannii 822144) [µg/mL]	MIC, A. baumannii 8309 (A. baumannii 8309) [µg/mL]	MIC, A. baumannii 9236 (A. baumannii 9236) [µg/mL]	MIC, A. baumannii 9331 (A. baumannii 9331) [µg/mL]	MIC, A. baumannii 98110 (A. baumannii 98110) [µg/mL]	MIC, A. baumannii ATCC 19606 (A. baumannii ATCC 19606) [µg/mL]	MBIC50, E. coli ATCC 25922 (E. coli ATCC 25922 [2]) [µg/mL]	MBIC90, E. coli ATCC 25922 (E. coli ATCC 25922 [2]) [µg/mL]
C=CCCCC(C)(N)C(=O)N[C@@H](CC(C)C)C(=O)N[C@@H](CCCCN)C(=O)N[C@@H](CC(C)C)C(=O)N[C@@H](CC(C)C)C(=O)N[C@@H](CCCCN)C(=O)N[C@@H](CCCCN)C(=O)N[C@@H](CC(C)C)C(=O)N[C@@H](CC(C)C)C(N)=O (stereo partly drawn) [Feleucin-K65] (H-[ξαMeGly(pent-4-enyl)]LKLLKKLL-NH2)	8 (≈ 7.23 µM)	8 (≈ 7.23 µM)	4 (≈ 3.61 µM)	4 (≈ 3.61 µM)	8 (≈ 7.23 µM)	4 (≈ 3.61 µM)	4 (≈ 3.61 µM)	8 (≈ 7.23 µM)	4 (≈ 3.61 µM)	4 (≈ 3.61 µM)	16	32
C=CCCCC(C)(NC(=O)[C@H](CC(C)C)NC(=O)[C@H](CCCCN)NC(=O)[C@H](CCCCN)NC(=O)[C@H](CC(C)C)NC(=O)[C@H](CC(C)C)NC(=O)[C@H](CCCCN)NC(=O)[C@H](CC(C)C)NC(=O)[C@@H](N)Cc1ccccc1)C(N)=O (stereo partly drawn) [Feleucin-K70] (H-FLKLLKKL[ξαMeGly(pent-4-enyl)]-NH2)	8 (≈ 7.01 µM)	8 (≈ 7.01 µM)	8 (≈ 7.01 µM)	8 (≈ 7.01 µM)	8 (≈ 7.01 µM)	8 (≈ 7.01 µM)	8 (≈ 7.01 µM)	16 (≈ 14 µM)	8 (≈ 7.01 µM)	8 (≈ 7.01 µM)	8	32
